Results as given in EP1151753B1, “PREVENTIVE AND THERAPEUTIC AGENTS FOR ARTERIOSCLEROSIS” (CCI CORPORATION, priority 1999, dated 2000).

Experiments:
[1] = Biochemical test of blood and measurement of body weight, WHHL rabbit model; type: in vivo, WHHL type rabbits; settings: WHHL rabbits
Protocol: Now, the pharmacogenic effect of the agent of this invention for preventing and curing arteriosclerosis will be described specifically below with reference to a pharmacological test using high cholesterol-loaded rabbits and the WHHL (Watanabe heritable hyperlipidemic) rabbits forming a model of the familial high-cholesterol blood disease. The data were wholly reported by the average ± standard error (SE) and the significant differences among separate groups were determined by the Student's t-test. The risk factor, p < 0.05, was rated as forming a significance of difference.
1. Animal used and feeding conditions In the test, female and male WHHL type rabbits (SPF: Kitayama Labels K.K.) which were eight weeks old at the time of arrival at the laboratory were subjected to quarantine and domestication and visually inspected as to the general condition and, after the absence of abnormality was confirmed, put to use. The body weights at the time of starting administration (at the age of nine weeks) were in the range of 1.5 - 1.9 kg in the case of male rabbits and in the range of 1.4 - 1.8 kg in the case of female rabbits. Throughout the entire duration of the test, the animals were raised as accommodated one each in hanger cages of aluminum installed on a stainless steel rack inside a clean feeding chamber set at a temperature in the range of 20 - 26°, a relative humidity in the range of 40 - 70%, a number of ventilations in the range of 10 - 20 turns/hour, and an illumination time within the range of 12 hours (7.00 - 19:00). They were fed on a commercially available radioactively sterilized solid feed (made by Oriental Kobo K.K. and sold under the product code of "RC4") and they were left freely drinking the tap water delivered by an automatic water supplying device. 2. Setting dosage and method of administration The dosage of TMG was set at 800 mg/head/day. The TMG was solved in reagent grade ethanol. The produced solution was sprayed on the feed and the wet feed was left drying in the air. A mixed feed was prepared so as to contain 800 mg of TMG per 100 g of the feed. The mixed feed was given to the rabbits every morning at a rate of 100 g/day per head for 27 weeks for the sake of attaining oral consumption of the TMG. The feed for the control group was obtained by spraying ethanol alone on a feed and air-drying the wet feed. It was given to the rabbits of the control group at a rate of 100 g/day per head for 27 weeks. 3. Formation of groups and number of animals A control group and a TMG-administration group were formed; each group consistingof threemales and three females, namely a total of six rabbits. These animals were apportioned to the two groups randomly and nevertheless elaborately so as to avoid confusion of the children of one brood in either group to the fullest possible extent and equalize as much as permissible the average body weights and the average total cholesterol numbers in blood serum of the two groups with the body weights and the total cholesterol numbers found at the time of completion of the domestication. 4. […] The blood was centrifuged to separate blood serum and the blood serum was analyzed for the items shown in Table 5 by the use of an automatic analyzer (made by Hitachi. Ltd. and sold under the product code of "736-20"). The body weight of each rabbit was measured at the rate of once a week throughout the entire duration of the administration.

WHHL rabbit model = experiment: Evaluation of morbid alteration of aorta (Sudan dyeing), WHHL rabbit model; type: in vivo, WHHL type rabbits; settings: WHHL rabbits
Excerpt: 1. Animal used and feeding conditions In the test, female and male WHHL type rabbits (SPF: Kitayama Labels K.K.) which were eight weeks old at the time of arrival at the laboratory were subjected to quarantine and domestication and visually inspected as to the general condition and, after the absence of abnormality was confirmed, put to use. The body weights at the time of starting administration (at the age of nine weeks) were in the range of 1.5 - 1.9 kg in the case of male rabbits and in the range of 1.4 - 1.8 kg in the case of female rabbits. Throughout the entire duration of the test, the animals were raised as accommodated one each in hanger cages of aluminum installed on a stainless steel rack inside a clean feeding chamber set at a temperature in the range of 20 - 26°, a relative humidity in the range of 40 - 70%, a number of ventilations in the range of 10 - 20 turns/hour, and an illumination time within the range of 12 hours (7.00 - 19:00). […] The blood was centrifuged to separate blood serum and the blood serum was analyzed for the items shown in Table 5 by the use of an automatic analyzer (made by Hitachi. Ltd. and sold under the product code of "736-20"). The body weight of each rabbit was measured at the rate of once a week throughout the entire duration of the administration. […]

[2] = TMG 800 mg/head/day for 27 weeks
[3] = blood serum, TMG 800 mg/head/day in feed, average ± SE

Cc1c(C)c2c(c(C)c1O)CCC(C)(C[C@H]1O[C@H](CO)[C@@H](O)[C@H](O)[C@H]1O)O2 (stereo partly drawn) [TMG, 2-(α-D-glucopyranosyl)methyl-2,5,7,8-tetramethyl chroman-6-ol]
activity of lowering the blood serum lipids (T-CHO, TG, PL, LDL-CHO) [1, 2]: no activity
biochemical test of blood [1, 2]: no sign of abnormality
Body weight ([1]; TMG 800 mg/head/day in feed, average ± SE): 2.89 ± 0.11 kg
ALB [1, 3]: 2.4 ± 0.1 g/dL
ALP [1, 3]: 87± 5 mU/ml
ChE [1, 3]: 0.19 ± 0.05 U/ml
GOT [1, 3]: 26.0 ± 11.1 mU/ml
GPT [1, 3]: 59.7 ± 12.3 mU/ml
LDH [1, 3]: 97 ± 4 mU/ml
PL [1, 3]: 459 ± 52 mg/dL
T-CHO [1, 3]: 934 ± 49 mg/dL
TG [1, 3]: 169 ± 23 mg/dL
occurrence of the atherosclerosis (WHHL rabbit model; [2]): significantly repressing
Surface involvement (%) (WHHL rabbit model; area occupied by deposited lipid in whole area of aorta, TMG 800 mg/head/day in feed, 27th week, control 64.6±3.9, p < 0.05): 52.4 ± 4.7 %
